# Test system: chromosome alignment, centromeres, and spindle body
# Test: Fluorescence microscopy of chromosome alignment, centromeres and spindle body
# Assay type: cell-based
# Conditions: cells treated for several hours, FIGS. 8A-8B
# Excerpt: FIGS. 8A-8B: Color images showing effects of compound 25 on chromosome alignment, centromeres, and spindle body. Microtubules that make up the mitotic spindle are detected with an antibody linked to a green fluorophore, which was detected with a fluorescence microscope. Centromeres were detected with a far red fluorophore (they are pseudocolored pink). DNA was detected with Hoechst DNA stain, which is blue.
# In normal cells (FIG. 8A, upper two panels), chromosomes line up between the spindle poles at metaphase. In cells treated with compound 25 for several hours (FIG. 8A, lower two panels), cells still enter mitosis but centromeres are found all over the cell (not just in the middle between the poles of the spindle). […] However, when ZM is combined with compound 25, what was observed was a very dramatic disruption of spindle architecture. […] Without wishing to be bound by theory, it is believed that both Aurora B and the targets of compound 25 work in parallel to control tubulin function. When either one is inhibited alone, there is no effect since the other pathway compensates. When both are inhibited, the defect is detected.
compound,measurement,value
"COc1cc2c(Nc3ccc(NC(=O)c4ccccc4)cc3)ncnc2cc1OCCCN1CCOCC1 [ZM447439, reference compound]",Chromosome alignment / centromere position,Many misaligned chromosomes

# Source: US11098038B2, “Imidazole-based anticancer agents and derivatives thereof, and methods of making and using same” (The University of Toledo, priority 2017, dated 2021)
